# Test results: paper PMC11141402, “Cyclic β^2,3-amino acids improve the serum stability of macrocyclic peptide inhibitors targeting the SARS-CoV-2 main protease” (Bulletin of the Chemical Society of Japan, 2024)
# *1 amine or outer side, *2 acyl side, *3 side chain or, on linkers, in order; H or OH if unused. Where a SMILES comes first, the peptide text is derived from it. Bridges are numbered along the chain shown (N, C = ends). [ ]: non-standard residue; d: D form. ACHC(1S,2S) = O=C([C@H]1CCCC[C@@H]1N[*:1])[*:2]; X1 = O=C([C@@H]1CCC[C@@H]1N[*:1])[*:2]
# Key:
# [1] = Serum stability assay in human serum, LC/MS; type: in vitro ADME; conditions: 37 °C, peptide 10 μM, up to 168 h, mean ± s.d. (n = 3), read-out: t1/2 in serum (converted)
# Experimental: A synthetic macrocyclic peptide (10 μM) and a serum-resistant internal standard peptide consisting only of D-amino acids (NH2-PEG5-wstndwstnd-PEG5-CONH2, 5 μM) were mixed and incubated in human serum (Cosmo Bio, 12181201) at 37 °C for up to 168 h.[16] At each time point, 4 μL of the mixture was removed and quenched by adding 12 μL of methanol, followed by incubation on ice for 15 min. Following centrifugation (15,000 × g, 25 °C, 10 min), 10 μL of the supernatant was mixed with 40 μL of 1% (v/v) TFA in water. Following centrifugation (15,000 × g, 25 °C, 5 min), the supernatant was analyzed using LC/MS employing a reverse-phase column (ACQUITY UPLC BEH C18, 1.7 μm, 2.1 × 150 mm; Waters) and a Xevo G2-XS QTof system (Waters) with a linear gradient from 1% B to 61% B. Buffer A: water with 0.1% (v/v) formic acid; buffer B: acetonitrile with 0.1% (v/v) formic acid. The percentages of remaining peptides were determined by using the peak area integration of the chromatograms. The obtained LC/MS data were analyzed using a MassLynx 4.1 (Waters).
# SARS-CoV-2 M^pro [2] = target: T1, SARS-CoV-2 M^pro (Severe acute respiratory syndrome coronavirus 2, UniProt P0DTD1); test: biochemical
# T1 construct: also known as 3-chymotrypsin-like cysteine protease (3CL^pro) and nonstructural protein 5 (nsp5)
# SARS-CoV-2 M^pro [3] = target: T1, SARS-CoV-2 M^pro; test: biochemical; type: binding; conditions: for kon: read-out: ka (kinetic association)
Structure (SMILES),half-life at 10 μM [1] [h],IC50 (SARS-CoV-2 M^pro [2]) [µM],Kd (SARS-CoV-2 M^pro [3]) [µM],kon (SARS-CoV-2 M^pro [3]) [M⁻¹ s⁻¹]
"CC(C)C[C@@H]1NC(=O)[C@H]2CCCC[C@@H]2NC(=O)[C@H](CC(N)=O)NC(=O)[C@H](CC(=O)O)NC(=O)[C@H](Cc2ccc(O)cc2)NC(=O)[C@H](CCCNC(=N)N)NC(=O)[C@H](Cc2c[nH]cn2)NC(=O)[C@H](Cc2ccccc2)NC(=O)[C@@H](Cc2ccc(O)cc2)NC(=O)CSC[C@H](C(N)=O)NC(=O)[C@H](Cc2ccc(O)cc2)NC(=O)[C@H](C(C)C)NC1=O [BM3, ^AcyFHRYDNβ^2LVYc-NH2] ({CH2CO}-[dY]FHRYDN[ACHC(1S,2S)]LVY[dC]-NH2; thioether N-12)",48,0.04,0.0077,810000
"CC(C)C[C@@H]1NC(=O)[C@H](C)NC(=O)[C@H](CC(N)=O)NC(=O)[C@H](CC(=O)O)NC(=O)[C@H](Cc2ccc(O)cc2)NC(=O)[C@H](CCCNC(=N)N)NC(=O)[C@H](Cc2c[nH]cn2)NC(=O)[C@H](Cc2ccccc2)NC(=O)[C@@H](Cc2ccc(O)cc2)NC(=O)CSC[C@H](C(N)=O)NC(=O)[C@H](Cc2ccc(O)cc2)NC(=O)[C@H](C(C)C)NC1=O [BM3A, ^AcyFHRYDNA LVYc-NH2] ({CH2CO}-[dY]FHRYDNALVY[dC]-NH2; thioether N-12)",4.6,> 25,> 10,
"CC(C)C[C@@H]1NC(=O)[C@@H](Cc2ccc(O)cc2)NC(=O)CSC[C@H](C(N)=O)NC(=O)[C@H](Cc2ccccc2)NC(=O)[C@H](Cc2c[nH]cn2)NC(=O)[C@@H]2CCCN2C(=O)[C@H](CC(N)=O)NC(=O)[C@@H]2CCC[C@@H]2NC(=O)[C@H]([C@@H](C)O)NC(=O)[C@H](Cc2c[nH]cn2)NC1=O [BM4, ^AcyLHTβ^1NPHFc-NH2] ({CH2CO}-[dY]LHT[X1]NPHF[dC]-NH2; thioether N-10)",,> 8,1.2,1700
"CC(C)C[C@@H]1NC(=O)[C@H](CC(N)=O)NC(=O)[C@H](Cc2c[nH]cn2)NC(=O)[C@H](Cc2ccccc2)NC(=O)[C@@H]2CCC[C@@H]2NC(=O)[C@H](Cc2c[nH]cn2)NC(=O)[C@H](Cc2ccccc2)NC(=O)[C@@H](Cc2ccc(O)cc2)NC(=O)CSC[C@H](C(N)=O)NC(=O)[C@H](Cc2c[nH]cn2)NC(=O)[C@H](CC(C)C)NC(=O)[C@H](CCCNC(=N)N)NC(=O)[C@H](Cc2ccccc2)NC1=O [BM5, ^AcyFHβ^1FHNLFRLHc-NH2] ({CH2CO}-[dY]FH[X1]FHNLFRLH[dC]-NH2; thioether N-13)",,0.36,0.022,36000
"CC(C)C[C@@H]1NC(=O)[C@H](CO)NC(=O)[C@H](CCCNC(=N)N)NC(=O)[C@H](Cc2ccccc2)NC(=O)[C@@H]2CCC[C@@H]2NC(=O)[C@H](Cc2c[nH]cn2)NC(=O)[C@H](Cc2ccccc2)NC(=O)[C@@H](Cc2ccc(O)cc2)NC(=O)CSC[C@H](C(N)=O)NC(=O)CNC(=O)[C@H](Cc2ccccc2)NC(=O)[C@H](C(C)C)NC(=O)[C@H](Cc2ccccc2)NC1=O [BM6, ^AcyFHβ^1FRSLFVFGc-NH2] ({CH2CO}-[dY]FH[X1]FRSLFVFG[dC]-NH2; thioether N-13)",,2.15,0.0029,260000
"CC(C)C[C@@H]1NC(=O)[C@H](Cc2c[nH]cn2)NC(=O)[C@H](Cc2ccc(O)cc2)NC(=O)[C@@H]2CCC[C@@H]2NC(=O)[C@H](CC(=O)O)NC(=O)[C@H](Cc2ccccc2)NC(=O)[C@@H](Cc2ccc(O)cc2)NC(=O)CSC[C@H](C(N)=O)NC(=O)[C@H](CCCNC(=N)N)NC(=O)[C@@H]2CCC[C@@H]2NC(=O)[C@H](CC(N)=O)NC1=O [BM7, ^AcyFDβ^1YHLNβ^1Rc-NH2] ({CH2CO}-[dY]FD[X1]YHLN[X1]R[dC]-NH2; thioether N-11)",> 168,0.02,0.0096,170000
"CC(C)C[C@@H]1NC(=O)[C@H](Cc2c[nH]cn2)NC(=O)[C@H](Cc2ccc(O)cc2)NC(=O)[C@H](C)NC(=O)[C@H](CC(=O)O)NC(=O)[C@H](Cc2ccccc2)NC(=O)[C@@H](Cc2ccc(O)cc2)NC(=O)CSC[C@H](C(N)=O)NC(=O)[C@H](CCCNC(=N)N)NC(=O)[C@H](C)NC(=O)[C@H](CC(N)=O)NC1=O [BM7A, ^AcyFDA YHLNA Rc-NH2] ({CH2CO}-[dY]FDAYHLNAR[dC]-NH2; thioether N-11)",4.2,> 25,> 10,
